Ten compounds from ChEMBL document CHEMBL1201862, “PubChem BioAssay data set” (2004) can be followed below.

Some test systems named below: CCRF-CEM; EKVX; HCC 2998; HL-60; HOP-62; HT-29; IGROV-1; M14; MDA-MB-231; MOLT-4; NCI-H23; NCI-H522; NCI/ADR-RES; OVCAR-8; SF-268; SF-539; T47D; TK-10; UACC-257; SNB-75.
Common to all, as to assay: inhibition of tumour cell growth, NCI panel, 48 h

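Dose response: 5 concentrations. Exposure: 48 h. Format: 96-well plates. Endpoint: linear interpolation; highest concentration if not reached. GI50 is the concentration that inhibits growth by half.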 Activity calls are given as the source filed them. Cut-off read from the data, not from the text of the source: active = GI50 up to about 1.1 µM and inactive = higher.

As to `Clc1ccc(C2=NN=C3C(c4ccccc4)=Nc4ccccc4N3C2)cc1`, the GI50 in the test on CCRF-CEM is 2.03 µM (inactive); in the test on EKVX, 4.97 µM (inactive); with HCC 2998 it was 17.9 µM (inactive); in the test on HL-60 it was 2.56 µM (inactive); in the test with HOP-62 it was 10.8 µM (inactive); in the test on HT-29, 3.01 µM (inactive). The GI50 with IGROV-1 was 7.87 µM (inactive); in the test with M14, 2.79 µM (inactive); in the test with MDA-MB-231, 32.7 µM (inactive); in the test on MOLT-4 it was 0.957 µM (active); in the test with NCI-H23, 16.3 µM (inactive); with NCI-H522 it was 2.75 µM (inactive). Besides, the GI50 was 4.48 µM (inactive) in the test with NCI/ADR-RES; 4.05 µM (inactive) with OVCAR-8; 2.88 µM (inactive) in the test with SF-268; 19.3 µM (inactive) in the test on SF-539; 1.45 µM (inactive) in the test with T47D; 3.89 µM (inactive) in the test on TK-10. In the test with UACC-257, the GI50 is 5.73 µM (inactive).
`CO[C@H]1C=C[C@]23c4cc5c(cc4CN(CC2O)[C@@H]3C1)OCO5` (some centres undefined): the GI50 was 0.314 µM (active) in the test with CCRF-CEM; 3.57 µM (inactive) in the test with EKVX; 2.58 µM (inactive) in the test on HCC 2998; 0.179 µM (active) in the test on HL-60; 2.06 µM (inactive) in the test on HT-29; 1.37 µM (inactive) in the test with IGROV-1. In addition, the GI50 in the test with M14 is 3.3 µM (inactive); with MDA-MB-231, 2.67 µM (inactive); with MOLT-4, 0.873 µM (active); with NCI-H23, 4.49 µM (inactive); with NCI-H522 it was 1.72 µM (inactive); in the test on NCI/ADR-RES, 4.98 µM (inactive). Also, the GI50 is 3.08 µM (inactive) with OVCAR-8; 2.17 µM (inactive) in the test with SF-268; 2.59 µM (inactive) in the test with SF-539; 2.36 µM (inactive) in the test with SNB-75; 1.56 µM (inactive) in the test on T47D; 3.18 µM (inactive) in the test on TK-10. The GI50 in the test on UACC-257 is 3.15 µM (inactive).
Regarding `CC(=O)OC12CC(C(F)(F)F)(C(F)(F)F)OC1(OC(C)=O)CC(C(F)(F)F)(C(F)(F)F)O2` (centres undefined), the GI50 was 2.04 µM (inactive) with CCRF-CEM; 9.08 µM (inactive) in the test on HCC 2998; 1.89 µM (inactive) in the test on HL-60; 25.4 µM (inactive) in the test on HOP-62; 5.28 µM (inactive) in the test with HT-29; 1.41 µM (inactive) with IGROV-1. For the same compound, the GI50 with M14 is 3.72 µM (inactive); with MDA-MB-231, 6.34 µM (inactive); with MOLT-4, 1.06 µM (active); in the test with NCI-H23 it was 1.23 µM (inactive); in the test on NCI-H522, 1.24 µM (inactive); with NCI/ADR-RES, 10.9 µM (inactive). In addition, the GI50 in the test on OVCAR-8 was 2.71 µM (inactive); in the test with SF-268, 1.58 µM (inactive); with SF-539, 2.07 µM (inactive); with SNB-75, 11.1 µM (inactive); in the test with T47D it was 1.34 µM (inactive); in the test on TK-10, 8.28 µM (inactive). In the test on UACC-257, the GI50 was 3.13 µM (inactive).
`CC(=O)OC1C2CCC3C(C)(O)C4CC(O)C(C)(C)C4(O)C(O)CC13CC2(C)O` (centres undefined): the GI50 in the test with CCRF-CEM, in the test on EKVX, with HCC 2998, with HL-60, with HOP-62 and in the test on HT-29 was > 100 µM (inactive) in each case. In addition, the GI50 in the test on IGROV-1, with M14, with MDA-MB-231, with NCI-H23, in the test on NCI-H522 and in the test on NCI/ADR-RES was > 100 µM (inactive) each time. The GI50 in the test with OVCAR-8, in the test on SF-268, with SF-539, in the test on SNB-75, with T47D and in the test on TK-10 was > 100 µM (inactive) in each case. Further, the GI50 with UACC-257 was > 100 µM (inactive).
On to `COc1cc2c(cc1O)C1CC(CC3CCCCN31)OC(=O)/C=C\c1ccc(O)c-2c1` (centres undefined), for which the GI50 in the test on CCRF-CEM was 30.1 µM (inactive); in the test on EKVX, 41.6 µM (inactive); with HCC 2998, 18.2 µM (inactive); in the test on HL-60 it was 27.8 µM (inactive); in the test on HT-29, 20.5 µM (inactive); in the test on IGROV-1 it was 24.7 µM (inactive). The GI50 was 19.6 µM (inactive) in the test on M14; 24.3 µM (inactive) in the test on MDA-MB-231; 20 µM (inactive) in the test with MOLT-4; 64 µM (inactive) in the test with NCI-H23; 26.5 µM (inactive) with NCI-H522; 23.8 µM (inactive) in the test with NCI/ADR-RES. The GI50 in the test on OVCAR-8 was 21.6 µM (inactive); in the test with SF-268, 24.9 µM (inactive); in the test on SF-539, 15.8 µM (inactive); in the test on SNB-75, 10.2 µM (inactive); in the test with T47D, 18.5 µM (inactive); with TK-10, 26.4 µM (inactive). In addition, in the test with UACC-257, the GI50 was 19.1 µM (inactive).
As to `N#C[BH2-][n+]1cn(C2CC(O)C(COP(=O)(O)OC3CC(n4cnc5c(=O)[nH]c(N)nc54)OC3CO)O2)c2nc(N)[nH]c(=O)c21` (centres undefined), the GI50 in the test on CCRF-CEM was 20.5 µM (inactive); in the test on EKVX, > 100 µM (inactive); in the test with HCC 2998 it was > 100 µM (inactive); in the test on HL-60, > 100 µM (inactive); in the test with HOP-62, 84.7 µM (inactive); with HT-29 it was > 100 µM (inactive). The GI50 in the test on IGROV-1 was 22 µM (inactive); with M14 it was > 100 µM (inactive); in the test with MDA-MB-231, > 100 µM (inactive); in the test with NCI-H23, > 100 µM (inactive); with NCI-H522, > 100 µM (inactive); in the test on NCI/ADR-RES it was > 100 µM (inactive). Further, the GI50 in the test on OVCAR-8, in the test on SF-268, with SF-539, in the test on SNB-75, in the test with T47D and in the test on UACC-257 was > 100 µM (inactive) throughout.
On to `CCN(CC)Cc1ccc(Nc2c3ccccc3nc3ccccc23)cc1`, for which the GI50 in the test on CCRF-CEM was 1.82 µM (inactive); with EKVX, 3.3 µM (inactive); in the test on HCC 2998, 1.08 µM (active); in the test with HL-60 it was 2.79 µM (inactive); in the test on HOP-62, 2.38 µM (inactive); in the test with HT-29, 1.91 µM (inactive). For the same compound, the GI50 was 3 µM (inactive) in the test with IGROV-1; 1.77 µM (inactive) in the test on M14; 1.66 µM (inactive) with MDA-MB-231; 0.955 µM (active) in the test on MOLT-4; 1.99 µM (inactive) in the test with NCI-H23; 1.41 µM (inactive) with NCI-H522. Moreover, the GI50 with NCI/ADR-RES was 5.48 µM (inactive); in the test with OVCAR-8, 3.05 µM (inactive); in the test with SF-268 it was 2.82 µM (inactive); in the test on SF-539, 1.8 µM (inactive); with T47D, 4.16 µM (inactive); with TK-10, 6.14 µM (inactive). Further, in the test with UACC-257, the GI50 was 1.71 µM (inactive).
With `CC(=O)Nc1sc(Br)cc1S(=O)(=O)c1ccc(Cl)cc1`, the GI50 with CCRF-CEM is 35.1 µM (inactive); in the test on EKVX, 37.2 µM (inactive); with HCC 2998 it was 19.4 µM (inactive); with HL-60 it was 21.9 µM (inactive); with HT-29 it was 16.9 µM (inactive); with IGROV-1, 44.4 µM (inactive). In addition, the GI50 in the test on M14 was 15.2 µM (inactive); in the test with MDA-MB-231, > 100 µM (inactive); in the test on MOLT-4 it was 35.1 µM (inactive); in the test on NCI-H23, 29.4 µM (inactive); in the test with NCI-H522, 19.3 µM (inactive); in the test on NCI/ADR-RES it was 21.9 µM (inactive). Also, the GI50 in the test with OVCAR-8 was 26.9 µM (inactive); in the test with SF-268, 30.1 µM (inactive); in the test with SF-539 it was 0.731 µM (active); in the test with SNB-75, 28.2 µM (inactive); with T47D, 32.1 µM (inactive); with TK-10 it was 46.7 µM (inactive). Also, the GI50 in the test with UACC-257 was 29.9 µM (inactive).
`c1ccc(COCC23CCN(Cc4ccccc4)C(CC(OCc4ccccc4)C2)S3)cc1` (centres undefined): the GI50 in the test on CCRF-CEM is 56.8 µM (inactive); in the test on EKVX it was 49 µM (inactive); with HCC 2998, 58.5 µM (inactive); with HL-60, 19.5 µM (inactive); in the test on HOP-62, 65.9 µM (inactive); in the test on HT-29 it was 25.8 µM (inactive). Further, the GI50 in the test on IGROV-1 is > 100 µM (inactive); with M14 it was 39.3 µM (inactive); in the test on MDA-MB-231 it was 66.4 µM (inactive); in the test with MOLT-4 it was 25.6 µM (inactive); in the test on NCI-H23 it was 31.4 µM (inactive); in the test on NCI-H522, 29.7 µM (inactive). The GI50 in the test with NCI/ADR-RES was 83 µM (inactive); with OVCAR-8, 73.5 µM (inactive); in the test on SF-268 it was 73.3 µM (inactive); in the test on SF-539, > 100 µM (inactive); in the test on SNB-75 it was > 100 µM (inactive); with T47D, 26.4 µM (inactive). In addition, the GI50 in the test on UACC-257 is 45.3 µM (inactive).
On to `Cc1[nH]c2ncn(/N=C/c3ccccc3)c(=N)c2c1Cc1ccccc1`, for which the GI50 is > 100 µM (inactive) in the test on CCRF-CEM; 69.8 µM (inactive) with EKVX; 83.9 µM (inactive) with HCC 2998; > 100 µM (inactive) with HL-60; > 100 µM (inactive) in the test with HOP-62; > 100 µM (inactive) with HT-29. In addition, the GI50 in the test on IGROV-1 is > 100 µM (inactive); in the test on M14, > 100 µM (inactive); in the test with MDA-MB-231, 58.1 µM (inactive); in the test with MOLT-4 it was 53 µM (inactive); in the test on NCI-H23, > 100 µM (inactive); in the test on NCI/ADR-RES, > 100 µM (inactive). In addition, the GI50 in the test on OVCAR-8 is > 100 µM (inactive); in the test on SF-268, > 100 µM (inactive); in the test on SF-539, 38.5 µM (inactive); in the test with SNB-75, > 100 µM (inactive); with T47D, > 100 µM (inactive); in the test with TK-10, > 100 µM (inactive). Moreover, the GI50 in the test with UACC-257 is 75.3 µM (inactive).
